# Test: Potency code of Table 2 (assay not stated)
row,SMILES,Potency code
1,COC(=O)c1cc(-c2ccc(OCc3ccc(Cl)cc3)c(-c3cc(C(F)(F)F)cc(C(F)(F)F)c3)c2O)nn1C [NUCC-0200970],+ (>40 +)
2,Cn1nc(C(F)(F)F)cc1-c1ccc(OCc2ccc(Cl)cc2)cn1 [NUCC-0200690],+ (>40 +)
3,Cn1nc(C(F)(F)F)cc1-c1ccc(O)c(-c2cc(C(F)(F)F)cc(C(F)(F)F)c2)c1O [NUCC-0200723],++ (30-40 ++)
4,Oc1ccc(OCc2ccc(Cl)cc2)cc1-c1cc(C(F)(F)F)n[nH]1 [NUCC-0200573],+ (>40 +)
5,CCc1ccc(Oc2c(-c3ccccc3O)n[nH]c2C(F)(F)F)cc1 [NUCC-0200683],+++ (10-30 +++)
6,CCc1ccc(Oc2c[nH]nc2-c2ccc(OCCc3ccc(Cl)cc3)cc2O)cc1 [NUCC-0176261],+ (>40 +)
7,Cn1cc(-c2ccccc2)c(-c2ccc(OCc3ccc(Cl)cc3)cc2O)n1 [NUCC-0198294],+ (>40 +)
8,N#Cc1cccc(-c2c(OCc3ccc(Cl)cc3)ccc(-c3cc(C(N)=O)[nH]n3)c2O)c1 [NUCC-0200557],+ (>40 +)
9,Cn1nc(C(F)(F)F)cc1-c1ccc(OCc2ccc(F)cc2)c(-c2cc(C(F)(F)F)cc(C(F)(F)F)c2)c1O [NUCC-0201034],+ (>40 +)
10,CC(C)CCOc1ccc(-c2cc(C(F)(F)F)nn2C)c(O)c1-c1cncc(C(F)(F)F)c1 [NUCC-0201206],++++ (<10 ++++)
11,Cn1nc(-c2ccc(OCCN3CCOCC3)cc2O)c(Oc2ccccc2Cl)c1C(F)(F)F [NUCC-0196341],+ (>40 +)
12,Cn1nc(C(F)(F)F)cc1-c1ccc(OCc2ccc(Cl)cc2)cc1Cl [NUCC-0200744],+ (>40 +)
13,CCc1ccc(Oc2c(-c3ccc(OCCc4ccc(Cl)cc4)cc3O)nn(C)c2C(F)(F)F)cc1 [NUCC-0196356],+ (>40 +)
14,C#CCC(N=[N+]=[N-])C(=O)Nc1ccc(COc2ccc(-c3cc(C(F)(F)F)n(C)n3)c(O)c2-c2cncc(C(F)(F)F)c2)cc1 (stereo not drawn) [NUCC-0201699],+ (>40 +)
15,CCc1ccc(Oc2c(-c3ccc(OCc4ccc(Cl)cc4)cc3OC)nn(C)c2C(F)(F)F)cc1 [NUCC-0196352],+ (>40 +)
16,Cn1cc(-c2cnc(OCc3ccc(Cl)cc3)cn2)c(C(F)(F)F)n1 [NUCC-0200747],+ (>40 +)
17,Cn1nc(-c2ccc(N)cc2O)cc1C(F)(F)F [NUCC-0200498],+ (>40 +)
18,CCCCCCOc1ccc(-c2cc(C(F)(F)F)n[nH]2)c(O)c1-c1cncc(C(F)(F)F)c1 [NUCC-0201192],+++ (10-30 +++)
19,Cc1cc(C)c(-c2c[nH]nc2-c2ccc(OCc3ccc(Cl)cc3)cc2O)c(C)c1 [NUCC-0198359],++ (30-40 ++)
20,Cn1cc(-c2ccc(OCc3ccc(Cl)cc3)cc2N)c(C(F)(F)F)n1 [NUCC-0200746],+ (>40 +)
21,Oc1cc(OCc2ccc(Cl)cc2)ccc1-c1cc(C(F)(F)F)[nH]n1 [NUCC-0196313],++++ (<10 ++++)
22,CCCCOc1ccc(-c2cc(C(F)(F)F)nn2C)c(O)c1-c1ccc(Cl)c(C(C)(C)F)c1 [NUCC-0201226],+++ (10-30 +++)
23,COc1ccc(-c2cn(C)nc2-c2ccc(OCc3ccc(Cl)cc3)cc2O)cc1 [NUCC-0198305],+ (>40 +)
24,COc1cccc(-c2c(C)nn(C)c2-c2ccc(OCc3ccc(Cl)cc3)cc2O)c1 [NUCC-0198313],+ (>40 +)
25,Cc1ccc(C)c(Oc2cn(C)nc2-c2ccc(OCc3cccc(Cl)c3)cc2O)c1 [NUCC-0196287],+ (>40 +)
26,Cn1cc(-c2ccc(NCc3ccc(Cl)cc3)cn2)c(C(F)(F)F)n1 [NUCC-0200742],+ (>40 +)

row,SMILES,Potency code
1,Oc1cc(OCc2ccc(Cl)cc2)ccc1-c1n[nH]c(C(F)(F)F)c1-c1ccccc1 [NUCC-0198295],++++ (<10 ++++)
2,Oc1cc(OCc2ccc(Cl)cc2)ccc1-c1n[nH]cc1-c1ccccc1 [NUCC-0198293],+ (>40 +)
3,Cn1nc(-c2ccc(OCc3ccc(Cl)cc3)c(-c3cncc(C(F)(F)F)c3)c2O)cc1C(F)(F)F [NUCC-0201631],+ (>40 +)
4,CCc1nn(C)c(-c2ccc(OCc3ccc(Cl)cc3)cc2O)c1-c1cccc(OC)c1 [NUCC-0198316],+ (>40 +)
5,CCc1ccc(Oc2c(-c3ccc(OCc4cccc(OC)c4)cc3O)n[nH]c2C(F)(F)F)cc1 [NUCC-0196297],+ (>40 +)
6,Cn1nc(C(F)(F)F)cc1-c1ccc(OCc2ccc(Cl)cc2)c(-c2ccccc2OC(F)(F)F)c1O [NUCC-0198410],+ (>40 +)
7,[N-]=[N+]=NCCOCCOCCOCC(=O)Nc1ccc(COc2ccc(-c3cc(C(F)(F)F)n[nH]3)c(O)c2-c2cc(C(F)(F)F)cc(C(F)(F)F)c2)cc1 [NUCC-0201199],+++ (10-30 +++)
8,Oc1ccc(OCc2ccc(Cl)cc2)cc1-c1[nH]nc(C(F)(F)F)c1-c1ccc(F)cc1 [NUCC-0200575],++++ (<10 ++++)
9,N#Cc1cncc(-c2c(OCc3ccc(Cl)cc3)ccc(-c3cc(C(F)(F)F)n[nH]3)c2O)c1 [NUCC-0201038],++++ (<10 ++++)
10,NC(=O)c1ccc(-c2c(OCc3ccc(Cl)cc3)ccc(-c3cc(C(F)(F)F)[nH]n3)c2O)cc1 [NUCC-0198394],++ (30-40 ++)
11,Oc1cc(OCc2ccc(Cl)cc2)ccc1-c1n[nH]cc1-c1cccc(Cl)c1 [NUCC-0196350],+++ (10-30 +++)
12,Oc1cc(Oc2ccc(Cl)cc2)ccc1-c1cc(C(F)(F)F)[nH]n1 [NUCC-0200679],++ (30-40 ++)
13,Cc1cc(C)cc(-c2cnn(C)c2-c2ccc(OCc3ccc(Cl)cc3)cc2O)c1 [NUCC-0198354],+ (>40 +)
14,CCc1ccc(Oc2c[nH]nc2-c2ccc(OCc3cnn(C)c3)cc2O)cc1 [NUCC-0176246],+ (>40 +)
15,CN/N=C(/C)c1cccc(-c2c(OCc3ccc(Cl)cc3)ccc(-c3cc(C(F)(F)F)[nH]n3)c2O)c1 [NUCC-0198403],+ (>40 +)
16,COc1cccc(-c2c(C(F)(F)F)nn(C)c2-c2ccc(OCc3ccc(Cl)cc3)cc2O)c1 [NUCC-0198310],+ (>40 +)
17,Cn1nc(-c2ccc(OCc3ccc(Cl)cc3)c(-c3ccc(C(F)(F)F)c(Cl)c3)c2O)cc1C(F)(F)F [NUCC-0200729],+ (>40 +)
18,Cc1ccc(C)c(Oc2c[nH]nc2-c2ccc(OCc3ccc4ccccc4c3)cc2O)c1 [NUCC-0196290],+ (>40 +)
19,Oc1cc(Nc2ccc(Cl)c(Cl)c2)ccc1-c1cc(C(F)(F)F)[nH]n1 [NUCC-0200721],++++ (<10 ++++)
20,N#Cc1cc(-c2ccc(Nc3ccc(Cl)cc3)cc2O)n[nH]1 [NUCC-0200678],+ (>40 +)
21,COc1ccc(COc2ccc(-c3cc(C(F)(F)F)n(C)n3)c(O)c2-c2cc(C(F)(F)F)cc(C(F)(F)F)c2)cc1 [NUCC-0201043],+ (>40 +)
22,CCc1ccc(Oc2c(-c3ccc(OCc4ccc(Cl)cc4)cc3O)n[nH]c2CC)cc1 [NUCC-0196282],+ (>40 +)
23,COc1ccc(-c2cc(C(F)(F)F)[nH]n2)c(O)c1-c1cc(C(F)(F)F)cc(C(F)(F)F)c1 [NUCC-0201220],++++ (<10 ++++)
24,Oc1c(-c2cc(C(F)(F)F)n[nH]2)ccc(OCc2ccc(Cl)cc2)c1-c1ccc2c(c1)OCCO2 [NUCC-0200686],+ (>40 +)
25,Oc1c(-c2cc(C(F)(F)F)n[nH]2)ccc(OCCc2ccc(Cl)cc2)c1-c1cc(C(F)(F)F)cc(C(F)(F)F)c1 [NUCC-0201024],++++ (<10 ++++)
